The values that follow are results of earlier work, collected in US20100160456A1 (priority 2007, published 2010).

The conditions of data set [1]: incidence grade.
For data set [2] the following is noted: after being injected with Propofol.
The conditions of data set [3]: known emulsion.

For `CCCOC(=O)Cc1ccc(OCC(=O)N(CC)CC)c(OC)c1` [PRPN, Propanidine], in data set [1], the Excitation result is “+”, the Latency result is on record as “+” and the “Nausea & vomiting” value is “++”.
With `C=CCC1(C(C)C#CCC)C(=O)N=C(O)N(C)C1=O` (stereo not shown) [MTOX, Methohexital], in data set [1], the Awakening result is reported as “+”, the Excitation entry is “+”, the Injection-related pain entry is given as “+” and the Latency entry is listed as “++”.
For `CCOC(=O)c1cncn1[C@H](C)c1ccccc1` [ETOM, Etomidate], in data set [1], the Delirium entry is given as “+”, the Excitation entry is listed as “++”, the Injection-related pain result is on record as “+” and the Latency entry was “+”. Also, the “Nausea & vomiting” value in data set [1] is “+”.
For Althesin [ALTS], in data set [1], the Awakening entry is “+”, the Excitation result was “+”, the Latency entry was “+” and the “Nausea & vomiting” value is listed as “+”.
For `CC(=O)NS(=O)(=O)c1ccc(N)cc1` [KET, Cetamide], in data set [1], the Delirium entry is “+++”, the Excitation result is “+++”, the Latency entry was “+” and the “Nausea & vomiting” value is “+”.
`CCCC(C)C1(CC)C(=O)NC(=S)NC1=O` (stereo not shown) [TIOP, Thiopental]: in data set [1], the Awakening result is recorded as “+”, the Injection-related pain entry is “+” and the Latency entry is on record as “++”.
As for `CC(C)c1cccc(C(C)C)c1O` [Propofol, 2,6-diisopropylphenol], in data set [1], the Awakening entry is given as “+”, the Injection-related pain entry is given as “+++” and the Latency entry is “++”. Further, the “patients with a rejection to the acute pain after injection” value in data set [2] is 80%. In addition, in data set [3], the “shelf-life of the product once the ampoule is opened” value was “approximately 8 hours”.
